The source of these data is patent publication EP0816375A1, “GLYCOCONJUGATES OF OPIATED SUBSTANCES” (ROLABO SL, priority 1995, dated 1997).

In one series the test system is Male Sprague-Dawley rats. Put plainly: antinociceptive tests: tail flick (tail immersion) test and paw pressure test. Type of series: in vivo. The settings on record: for degree of analgesia: intraperitoneally administered, codeine 5 mg/Kg compared with compound of example 26. The source says: The compounds of the invention may be compared with the unmodified parent opiates in standard antinociceptive tests, i.e. in terms of potency and duration of action. For example, phamacological tests may be effected to examine the effects of the compounds of the invention on suppressing pain associated to nocius stimuli induced in laboratory animals. Thus, these compounds can be tested by measuring the time treated animals are insensitive to a given painful stimuli.
In spite of the different classes among the compounds of the invention which can be appreciated in accordance to their chemical structure, all are pain-related substances and therefore can be examined on the tail immersion and paw pressure tests as follows.
Male Sprague-Dawley rats weighing 200 g are used. They are housed singly in a room with controlled temperature 21 °C on a 12h light-dark cycle and given free access to food and water.
The tail flick test, is conducted as described by D'Amour F.E. and Smith D.L. in A method for determining loss of pain sensations, J.Pharmacol. Exp. Ther. 72,74, 1941.
Mechanical nociceptive thresholds are determined by the paw pressure test on the left hind paw as described in the literature (Randall L.O. and Selito J.J. A method for measurement of analgesic activity on inflamed tissue, Arch. Int. Pharmacodyn. Ther. 1957, 11, 409-419.). Pain thresholds are measured with an analgesymeter. The apparatus is set up to apply a force of 0-1000 g increasing from zero at a rate of 64 g/s. The nociceptive threshold is taken as the point at which the rat vocalize or struggle vigorously.

For series [1] the following is noted: blood of patients taking morphine; cited from earlier work.
The conditions of series [2]: cited from earlier work; for analgesic activity: compared with the parent drug morphine.

Take `CCCCCCCCNC(=O)[C@H]1O[C@@H](Oc2ccc3c4c2O[C@H]2[C@@H](O)C=C[C@H]5[C@@H](C3)N(C)CC[C@@]452)[C@H](O)[C@@H](O)[C@@H]1O` [Example 1, 3-Morphinyl n-octyl-(β-D-glucopyranosyl)-uronamide acetate]: the analgesia with Male Sprague-Dawley rats (intraperitoneal administration, dosis of 0.1 mg/Kg, maximal antinociceptive response) was found to be 100%.
As for `CN1CC[C@]23c4c5ccc(O[C@@H]6O[C@H](C(=O)O)[C@@H](O)[C@H](O)[C@H]6O)c4O[C@H]2[C@@H](O)C=C[C@H]3[C@H]1C5` [Example M3G, Morphine 3-glucuronide], the analgesia in the series with Male Sprague-Dawley rats (intraperitoneal administration, dosis of 1 mg/Kg, same effect as morphine 5 mg/Kg) is on record as 65-75%. Further, the “concentration in blood relative to morphine” value in series [1] is listed as “approximately 20 fold”. The analgesic activity entry in series [2] is on record as “not analgesic”.
`CN1CC[C@]23c4c5ccc(O)c4O[C@H]2[C@@H](O)C=C[C@H]3[C@H]1C5` [morphine]: in the series with Male Sprague-Dawley rats (rat, in vivo, ip, 5 mg/kg), the analgesia is given as 65-75%.
As to `COc1ccc2c3c1O[C@H]1[C@@H](O)C=C[C@H]4[C@@H](C2)N(C)CC[C@@]341` [codeine], the degree of analgesia result in the series on Male Sprague-Dawley rats is “the same degree of analgesia as compound of example 26”.
Turning to `CN1CC[C@]23c4c5ccc(O)c4O[C@H]2[C@@H](O[C@@H]2O[C@H](C(=O)O)[C@@H](O)[C@H](O)[C@H]2O)C=C[C@H]3[C@H]1C5` [Example M6G, Morphine 6-glucuronide], the “concentration in blood relative to morphine” value in series [1] is listed as “two fold higher than morphine”. Moreover, the analgesic activity entry in series [2] is on record as “several times more active than the parent drug”. In series [2] (injected intrathecally), the “analgesic activity relative to morphine” value is “much more active than morphine”.
Take `COc1ccc2c3c1O[C@H]1[C@@H](O[C@@H]4O[C@H](CO)[C@@H](O)[C@H](O)[C@H]4O)C=C[C@H]4[C@@H](C2)N(C)CC[C@@]341` [Example 26, 6-Codeinyl-β-D-glucopyranoside acetate]: the degree of analgesia result with Male Sprague-Dawley rats is “the same degree of analgesia”.
